Where two headings read alike, the source gives them in different places. Starred links: 1 amine or outer side, 2 acyl side, 3 side chain; linkers in the order of their positions; H or OH if unused. Positions of bridges follow the written chain, without caps; N, C: chain ends. Non-standard residues stand in square brackets, D forms with d. Residues, ends and D or L forms follow the SMILES beside them. Hyp = O=C(O)[C@@H]1C[C@@H](O)CN1; Ac4c = NC1(C(=O)O)CCC1; CH2 = C([*:1])[*:2]; βAla = NCCC(=O)O
Experiments:
[1] = target: T1, human MC4R (Homo sapiens, UniProt P32245); test: Functional cAMP assay (CisBio HTRF) in BHK cells expressing human MC4R; assay type: cell-based; conditions: for MC1R/MC4R cAMP EC50 ratio: MC1R cAMP EC50 divided by MC4R cAMP EC50
T1 construct: expressed in transfected cells
T1 sequence (P32245 whole entry): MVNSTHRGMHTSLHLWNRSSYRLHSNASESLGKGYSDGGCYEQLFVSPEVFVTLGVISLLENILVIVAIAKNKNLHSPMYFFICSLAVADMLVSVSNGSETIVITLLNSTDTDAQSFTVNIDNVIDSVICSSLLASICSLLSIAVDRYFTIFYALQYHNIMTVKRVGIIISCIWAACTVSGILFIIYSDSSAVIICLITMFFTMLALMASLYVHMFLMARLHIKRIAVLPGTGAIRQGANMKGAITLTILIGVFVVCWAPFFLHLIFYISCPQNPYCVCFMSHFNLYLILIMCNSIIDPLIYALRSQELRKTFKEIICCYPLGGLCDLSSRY
Experimental: In order to assess the potency of the compounds on human MC1R and human MC4R cAMP signalling was measured.
cAMP induction was measured by c-AMPdynamic2 assay, HTRF 62AM4PEC system from CisBio for the human MC1R and human MC4R according to the protocol provided by the vendor. BHK cells expressing the human MC1 or MC4 receptor were generated by stable transfection with expression vectors encoding the cDNA of either MC1R or MC4R.
In details; 25 μl compound—or standard solution were added in the respective wells. Compound was reconstituted in buffer (DMEM w/o phenol red, 10 mM
Hepes, lx Glutamine, 0.1% OV-albumin1, 1 mM IBMX) and serially diluted starting at 2 μM, 10-fold seven times. Dilutions were carried out in the same aforementioned buffer to the desired working concentration ranges (2× higher than the final concentration). 25 μl cell solution was then added and allowed to incubate for 30 min while lightly shaking, at 25° C. […] The provided components for the assay were reconstituted according to the CisBio assay protocol “3.1 supplied reagents and preparation procedure” in MilliQ purification system H2O and diluted 1:20 in lysis buffer. 25 μl cAMP-d2 and 25 μl Cryptate conjugate were added to all wells.
Plates were centrifuged at 1500 rpm for 30 sec and incubated for 1 h, lightly shaking, at 25° C. in a hotel stacker. The plates were read on Mithras LB 940 provided by Berthold Technologies The data were analysed by non-linear regression analysis of binding curves, using the Windows™ program GraphPad™ Prism (GraphPad Software, USA).
The latter is used when no full curve can be obtained in the concentration ranges indicated above.

[2] = target: T1, human MC4R; test: 125NDP-α-MSH competitive binding to membranes of BHK cells expressing human MC4 receptor (filtration assay)
Experimental: In Vitro ^125NDP-α-MSH Binding to Recombinant BHK Cells Expressing Human MC4 Receptor (Filtration Assay)
In order to assess the binding affinity of the selected compounds for the human MC4R competitive binding assays was performed with radiolabeled NDP-alpha MSH (^125NDP-α-MSH).
The assay was performed in 96-well filterplates (Unifilter) using BHK cells stably expressing the human MC4 receptor.
The BHK cell membranes were prepared from frozen or fresh cells that were homogenized in 20 mM HEPES pH 7.1, 5 mM MgCl2, 1 mg/ml bacitracin (buffer 1) and centrifuged at 15000 rpm at 4° C., 10 min in a Sorvall RC 5B plus, SS-34 rotor. The supernatant was discarded, and the pellets were re-suspended in buffer 1, homogenized and centrifuged two more times. The final pellets were re-suspended in buffer 1 and the protein concentration was measured and adjusted with buffer 1 to 5 mg/ml and the membrane preparation was kept at −80° C. until assay. The assay was run on a dilution of this cell membrane suspension without any further preparation. The suspension was diluted to give maximally 10% specific binding, i.e. to approx. 50-100 fold dilution, optimized after each membrane preparation. The assay was performed in a total volume of 200 μl: 50 μl of cell suspension, 50 μl of ^125NDP-α-MSH (apx. […] in final concentration), 50 μl of test compound and 50 μl binding buffer were mixed and incubated for 2 h at 25° C. (binding buffer: 25 mM HEPES, pH 7.0, 1 mM CaCl2), 1 mM MgSO4, 1 mM EGTA, 0.005% Tween™ 20 and 0.1% HSA or, alternatively, 0.1% ovalbumin (Sigma; catalogue No. A-5503)). Test compounds were dissolved in 100% DMSO and diluted in binding buffer in a dose range from 1 μM to 0.001 nM. Radiolabelled ligand and membranes were diluted in binding buffer. The incubation was stopped by dilution with 8×100 μl ice-cold 0.9% NaCl. The radioactivity retained on the filters was counted using a Packard Topcounter. The data were analysed by non-linear regression analysis of binding curves, using the Windows™ program GraphPad™ Prism (GraphPad Software, USA).

[3] = BHK cells expressing human MC4R, '>' = highest dose used with no response, read-out: MC4R cAMP EC50
[4] = human MC4R, BHK cell membranes, 125NDP-α-MSH radioligand, read-out: MC4R binding Ki

| Compound | EC50 [1, 3] [nM] | Ki [2, 4] [nM] | MC1R/MC4R cAMP EC50 ratio [1] | EC50 [1] [nM] | Ki [2] [nM] |
| --- | --- | --- | --- | --- | --- |
| N=C(N)NCCC[C@@H]1NC(=O)[C@@H](Cc2ccccc2)NC(=O)[C@H](Cc2c[nH]cn2)NC(=O)C2(CCC2)NC(=O)[C@@H]2CSSC[C@H](NC(=O)[C@H](Cc3c[nH]c4ccccc34)NC1=O)C(=O)NC1(CCC1)C(=O)N[C@@H](Cc1c[nH]cn1)C(=O)N[C@H](Cc1ccccc1)C(=O)N[C@@H](CCCNC(=N)N)C(=O)N[C@@H](Cc1c[nH]c3ccccc13)C(=O)N2 [Chem. 20, c[c[Cys-ACBC-His-D-Phe-Arg-Trp- Cys]-ACBC-His-D-Phe-Arg-Trp]] (cyclo([Ac4c]H[dF]RWC[Ac4c]H[dF]RWC); disulfide 6-12) | – | – | 124 | 0.04 | 0.15 |
| N=C(N)NCCC[C@@H]1NC(=O)[C@@H](Cc2ccccc2)NC(=O)[C@@H]2C[C@@H](O)CN2C(=O)[C@@H]2CSCSC[C@H](NC(=O)[C@H](Cc3c[nH]c4ccccc34)NC1=O)C(=O)N1C[C@H](O)C[C@H]1C(=O)N[C@H](Cc1ccccc1)C(=O)N[C@@H](CCCNC(=N)N)C(=O)N[C@@H](Cc1c[nH]c3ccccc13)C(=O)N2 [Chem. 26, c[c[Cys-Hyp-D-Phe-Arg-Trp-Cys]- Hyp-D-Phe-Arg-Trp]] (cyclo(C[Hyp][dF]RWC[Hyp][dF]RW); linker 1-6 via CH2) | – | 0.44 | 96 | – | – |
| N=C(N)NCCC[C@@H]1NC(=O)[C@@H](Cc2ccccc2)NC(=O)[C@H](Cc2c[nH]cn2)NC(=O)[C@@H]2CCCN2C(=O)[C@@H]2CSSC[C@H](NC(=O)[C@H](Cc3c[nH]c4ccccc34)NC1=O)C(=O)N1CCC[C@H]1C(=O)N[C@@H](Cc1c[nH]cn1)C(=O)N[C@H](Cc1ccccc1)C(=O)N[C@@H](CCCNC(=N)N)C(=O)N[C@@H](Cc1c[nH]c3ccccc13)C(=O)N2 [Chem. 30, c[c[Cys-Pro-His-D-Phe-Arg-Trp-Cys]- Pro-His-D-Phe-Arg-Trp]] (cyclo(CPH[dF]RWCPH[dF]RW); disulfide 1-7) | 0.03 | 0.09 | 5 | – | – |

Further lines, with some results ahead:

| EC50 [1, 3] [nM] | Ki [2, 4] [nM] | Compound | MC1R/MC4R cAMP EC50 ratio [1] | EC50 [1] [nM] | Ki [2] [nM] |
| --- | --- | --- | --- | --- | --- |
| 0.09 | 0.12 | C[C@@H]1NC(=O)[C@@H]2CSSC[C@H](NC(=O)[C@H](Cc3c[nH]c4ccccc34)NC(=O)[C@H](CCCCN)NC(=O)[C@@H](Cc3ccccc3)NC(=O)[C@H](Cc3c[nH]cn3)NC1=O)C(=O)N[C@@H](C)C(=O)N[C@@H](Cc1c[nH]cn1)C(=O)N[C@H](Cc1ccccc1)C(=O)N[C@@H](CCCCN)C(=O)N[C@@H](Cc1c[nH]c3ccccc13)C(=O)N2 [Chem. 15, c[c[Cys-Ala-His-D-Phe-Lys-Trp-Cys]- Ala-His-D-Phe-Lys-Trp]] (cyclo(AH[dF]KWCAH[dF]KWC); disulfide 6-12) | 60 | – | – |
| 0.12 | 0.38 | C[C@@H]1NC(=O)[C@@H]2CSSC[C@H](NC(=O)[C@H](Cc3c[nH]c4ccccc34)NC(=O)[C@H](CCCCN(C)C)NC(=O)[C@@H](Cc3ccccc3)NC(=O)[C@H](Cc3c[nH]cn3)NC1=O)C(=O)N[C@@H](C)C(=O)N[C@@H](Cc1c[nH]cn1)C(=O)N[C@H](Cc1ccccc1)C(=O)N[C@@H](CCCCN(C)C)C(=O)N[C@@H](Cc1c[nH]c3ccccc13)C(=O)N2 [Chem. 18, c[c[Cys-Ala-His-D-Phe-Lys(Me)2-Trp- Cys]-Ala-His-D-Phe-Lys(Me)2-Trp]] | 35 | – | – |
| 0.02 | 0.04 | N=C(N)NCCC[C@@H]1NC(=O)[C@@H](Cc2ccccc2)NC(=O)[C@H](Cc2c[nH]cn2)NC(=O)CCNC(=O)[C@@H]2CSSC[C@H](NC(=O)[C@H](Cc3c[nH]c4ccccc34)NC1=O)C(=O)NCCC(=O)N[C@@H](Cc1c[nH]cn1)C(=O)N[C@H](Cc1ccccc1)C(=O)N[C@@H](CCCNC(=N)N)C(=O)N[C@@H](Cc1c[nH]c3ccccc13)C(=O)N2 [Chem. 25, c[c[Cys-βAla-His-D-Phe-Arg-Trp- Cys]-βAla-His-D-Phe-Arg-Trp]] (cyclo(C[βAla]H[dF]RWC[βAla]H[dF]RW); disulfide 1-7) | 17 | – | – |

Reference: patent US20200223889A1, “Bicyclic Compounds Capable of Binding to Melanocortin 4 Receptor” (Novo Nordisk A/S, priority 2017, published 2020)
